Series [1] deals with T1, EGFR (Homo sapiens, UniProt P00533).
T1 construct: Paraffin-embedded pancreatic tumors of mice from all treatment groups are immunostained; from tissue; host or cells: L3.6pl orthotopic pancreatic tumours grown in nude mice
Description: IHC analysis of phosphorylated EGFR in L3.6pl pancreatic tumors. The format is in vivo. Conditions: IHC of pancreatic tumors from treated mice. The text has this:
(§1) Immunohistochemical (IHC) Analysis to Detect EGF, VEGF, PDGF-BB, EGFR, VEGFR, PDGFRβ, pEGFR, pVEGFR, pPDGF-R in Pancreatic Tumors. Paraffin-embedded pancreatic tumors of mice from all treatment groups are immunostained to evaluate the expression of EGF, VEGF, PDGF-BB, EGFR, VEGFR, PDGFRβ, phosphorylated (p)EGFR, pVEGFR, and pPDGFRβ. The sections are deparaffinized in xylene, dehydrated with alcohol and rehydrated in PBS. Endogenous peroxidase is blocked with 3% hydrogen peroxide in PBS. Samples are exposed to protein block (5% normal horse serum, 1% normal goat serum in PBS) and incubated overnight at 4° C. with each primary antibody at the appropriate dilution. […] Slides are counterstained with Gill's #3 hematoxylin. Sections stained for immunoperoxidase or hematoxylin and eosin are examined in a microscope equipped with a three-chip-charged coupled device (CCD) color video camera. Digital images are captured using Optimas Image Analysis software (Media Cybernetics, Md.).

The target in series [2] is T2, VEGFR (Mus musculus, UniProt P35918).
T2 construct: Frozen sections of pancreatic tumors are mounted on slides and fixed; from tissue; host or cells: tumour-associated endothelial cells in L3.6pl tumours of nude mice
T2 sequence (P35918 20-1345): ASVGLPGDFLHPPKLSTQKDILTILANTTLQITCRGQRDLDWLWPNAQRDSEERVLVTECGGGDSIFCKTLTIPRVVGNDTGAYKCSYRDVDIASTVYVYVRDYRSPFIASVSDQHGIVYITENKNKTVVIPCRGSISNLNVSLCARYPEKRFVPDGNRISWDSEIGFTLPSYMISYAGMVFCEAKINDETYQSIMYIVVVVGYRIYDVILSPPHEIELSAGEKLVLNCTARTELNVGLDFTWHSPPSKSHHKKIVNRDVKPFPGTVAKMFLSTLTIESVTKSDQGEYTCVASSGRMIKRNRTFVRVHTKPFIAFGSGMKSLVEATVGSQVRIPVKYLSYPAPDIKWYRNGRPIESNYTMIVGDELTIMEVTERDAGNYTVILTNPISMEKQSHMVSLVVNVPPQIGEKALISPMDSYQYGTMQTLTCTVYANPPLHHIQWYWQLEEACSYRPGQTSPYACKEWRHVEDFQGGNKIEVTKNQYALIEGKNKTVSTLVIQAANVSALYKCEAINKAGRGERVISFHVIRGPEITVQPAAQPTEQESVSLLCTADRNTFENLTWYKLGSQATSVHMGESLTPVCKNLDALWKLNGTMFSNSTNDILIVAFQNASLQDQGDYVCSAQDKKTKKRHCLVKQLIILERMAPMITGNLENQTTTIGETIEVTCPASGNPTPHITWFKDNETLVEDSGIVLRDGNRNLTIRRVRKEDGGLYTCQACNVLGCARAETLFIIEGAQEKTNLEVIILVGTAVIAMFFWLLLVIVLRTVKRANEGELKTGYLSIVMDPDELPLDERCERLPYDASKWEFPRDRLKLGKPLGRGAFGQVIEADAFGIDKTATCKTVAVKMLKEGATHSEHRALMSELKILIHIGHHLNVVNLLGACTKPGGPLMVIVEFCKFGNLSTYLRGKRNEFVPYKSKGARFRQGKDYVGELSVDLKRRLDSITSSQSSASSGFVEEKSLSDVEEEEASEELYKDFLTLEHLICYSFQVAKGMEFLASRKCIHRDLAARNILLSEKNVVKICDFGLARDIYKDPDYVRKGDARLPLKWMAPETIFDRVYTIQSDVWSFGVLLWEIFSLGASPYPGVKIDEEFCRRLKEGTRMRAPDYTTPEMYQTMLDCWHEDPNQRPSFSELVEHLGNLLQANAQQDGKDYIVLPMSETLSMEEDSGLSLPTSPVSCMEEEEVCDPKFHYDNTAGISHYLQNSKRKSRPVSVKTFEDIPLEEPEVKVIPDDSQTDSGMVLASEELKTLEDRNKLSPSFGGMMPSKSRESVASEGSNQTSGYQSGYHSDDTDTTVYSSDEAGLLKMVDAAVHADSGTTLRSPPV
The series is described as follows: Double immunofluorescence CD31/pVEGFR on tumor-associated endothelial cells. Format: in vivo, nude mice. Conditions: double immunofluorescence with CD31.
Description: (§2) Double Immunofluorescence Staining for CD31/PECAM-1 and EGFR, pEGFR, VEGFR, pVEGFR, PDGFRβ, pPDGFRβ, Pericytes (desmin-positive cells), and TUNEL. Frozen sections of pancreatic tumors are mounted on slides and fixed. Immunofluorescence for CD31 is performed using Alexa594 conjugated secondary antibody, and samples are again blocked briefly in a blocking solution (5% normal horse serum and 1% normal goat serum in PBS) as described above and incubated with antibody against human EGFR, pEGFR, VEGFR, pVEGFR, PDGFRβ, pPDGFRβ, or desmin at 4° C. overnight. After washes and blocking with blocking solution, samples are incubated with Alexa488 conjugated secondary antibody. Endothelial cells are identified by red fluorescence, and EGF-R, pEGFR, VEGFR, pVEGFR, PDGFRβ, pPDGFRβ and desmin positive cells (pericytes) are identified by green fluorescence. The presence of growth factor receptors and phosphorylated receptors on endothelial cells are detected by colocalization of red and green fluorescence, which appeared yellow.

For series [3], the system named is L3.6pl human pancreatic cancer cells. The series is described as follows: Apoptosis (TUNEL) in L3.6pl tumors. Format: in vivo. Conditions: Median ± S.D.; TUNEL-positive cells in 10 random 0.159-mm^2 fields at ×100. The method, then:
Analysis of apoptotic cells is performed by using a commercially available TUNEL kit (Promega) with the following modifications: Samples are fixed and incubated with an equilibration buffer followed by a reaction buffer (containing nucleotide mix and terminal deoxynucleotidyl transferase enzyme). Immunofluorescence microscopy is performed in a Zeiss Axioplan microscope (Carl Zeiss, Inc., Thornwood, N.Y.) equipped with an HBO 100 mercury lamp, narrow bandpass filters to individually select for green, red, and blue fluorescence (Chroma Technology Corp., Brattleboro, Vt.). Images are captured using a cooled CCD Hamamatsu Orca camera (Hamamatsu Corp., Bridgewater, N.J.) and Image Pro Analysis software (Media Cybernetics, Silver Spring, Md.). Photomontages are prepared using Adobe Photoshop software (Adobe Systems, Inc., San Jose, Calif.). […] Statistical Analysis. Body weight, tumor weight, PCNA-positive cells, mean vessel density (CD31/PECAM-1), and TUNEL-positive cells are compared using the Mann-Whitney U test. Survival analysis is computed by the Kaplan-Meier method and compared by the Log rank test.

Series [4] in a line: Body weight of nude mice in the L3.6pl therapy study. Format: in vivo. Conditions: nude mice with orthotopic L3.6pl tumors; AEE788 50 mg/kg oral 3x/week, STI571 50 mg/kg oral daily, gemcitabine 50 mg/kg i.p. twice weekly; 4 weeks, killed day 49; n=10. As for the experimental part: Treatment of Established Human Pancreatic Carcinoma Tumors Growing in the Pancreas of Athymic Nude Mice. Twenty-one days after the intra-pancreatic injection of 0.5×10^6 viable L3.6pl cells in 50 μl HBSS, the pancreatic tumors reach the size of 5-6-mm. […] All mice are treated for 4 weeks and killed on day 49 of the experiment.
Necropsy Procedures and Histological Studies. In the first treatment study, the mice are killed on day 49 after tumor cell injection, weighted, and necropsied. Tumors growing in the pancreas are excised and weighed. For immunohistochemical staining procedures, one part of the tumor tissue is fixed in formalin and embedded in paraffin and the other is embedded in OCT compound (Miles, Inc., Elkhart, Ind.), rapidly frozen in liquid nitrogen, and stored at −70° C.
Statistical Analysis. Body weight, tumor weight, PCNA-positive cells, mean vessel density (CD31/PECAM-1), and TUNEL-positive cells are compared using the Mann-Whitney U test. Survival analysis is computed by the Kaplan-Meier method and compared by the Log rank test.

The test system of series [5] is VEGFR. Description: IHC analysis of phosphorylated VEGFR in L3.6pl pancreatic tumors. Format: in vivo, human. Conditions: IHC of pancreatic tumors from treated mice.
From the text: as §1

The target of series [6] is T3, EGFR (Mus musculus, UniProt Q01279).
T3 construct: Frozen sections of pancreatic tumors are mounted on slides and fixed; from tissue; host or cells: tumour-associated endothelial cells in L3.6pl tumours of nude mice
T3 sequence (Q01279 25-1210): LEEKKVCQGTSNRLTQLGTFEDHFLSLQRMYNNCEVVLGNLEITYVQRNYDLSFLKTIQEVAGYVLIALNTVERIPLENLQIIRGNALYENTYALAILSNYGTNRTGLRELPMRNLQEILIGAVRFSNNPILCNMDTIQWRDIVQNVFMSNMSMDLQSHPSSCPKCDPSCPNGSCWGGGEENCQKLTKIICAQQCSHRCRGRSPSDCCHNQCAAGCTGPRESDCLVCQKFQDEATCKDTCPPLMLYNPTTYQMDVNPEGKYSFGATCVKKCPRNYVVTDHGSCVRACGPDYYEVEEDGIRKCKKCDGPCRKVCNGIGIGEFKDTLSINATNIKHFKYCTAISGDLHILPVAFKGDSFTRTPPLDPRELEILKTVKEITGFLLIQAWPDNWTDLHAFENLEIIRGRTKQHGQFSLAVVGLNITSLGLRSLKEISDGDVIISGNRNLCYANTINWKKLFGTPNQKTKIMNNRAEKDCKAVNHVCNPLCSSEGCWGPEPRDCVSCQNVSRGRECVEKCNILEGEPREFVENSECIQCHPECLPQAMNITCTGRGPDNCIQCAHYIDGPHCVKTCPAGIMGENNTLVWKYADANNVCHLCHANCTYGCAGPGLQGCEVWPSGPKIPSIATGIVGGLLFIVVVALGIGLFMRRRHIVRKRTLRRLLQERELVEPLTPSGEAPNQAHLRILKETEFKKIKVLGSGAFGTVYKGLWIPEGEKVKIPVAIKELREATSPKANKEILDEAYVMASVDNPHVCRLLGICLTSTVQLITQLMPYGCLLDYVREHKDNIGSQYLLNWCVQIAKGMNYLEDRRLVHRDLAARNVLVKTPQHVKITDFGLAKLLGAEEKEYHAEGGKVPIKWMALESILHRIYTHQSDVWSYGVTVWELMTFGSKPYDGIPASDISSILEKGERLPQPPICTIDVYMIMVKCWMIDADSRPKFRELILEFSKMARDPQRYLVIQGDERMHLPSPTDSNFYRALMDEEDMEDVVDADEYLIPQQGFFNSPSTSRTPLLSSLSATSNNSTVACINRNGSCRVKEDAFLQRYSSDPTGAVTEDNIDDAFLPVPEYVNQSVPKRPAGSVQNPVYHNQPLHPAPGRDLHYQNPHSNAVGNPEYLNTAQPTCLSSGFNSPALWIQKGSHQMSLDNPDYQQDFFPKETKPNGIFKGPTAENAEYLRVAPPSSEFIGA
The series is described as follows: Double immunofluorescence CD31/pEGFR on tumor-associated endothelial cells. Format: in vivo, nude mice. Conditions: double immunofluorescence with CD31.
Description: as §2

[7] abbreviates: listed as {6-[4-(4-ethyl-piperazin-1-ylmethyl)-phenyl]-7H-pyrrolo[2,3-d]pyrimidin-4-yl}-(1).

Molecules are shown by their SMILES. Marks after values point to notes of the source that are not given here.

T1 sequence (P00533 25-1210): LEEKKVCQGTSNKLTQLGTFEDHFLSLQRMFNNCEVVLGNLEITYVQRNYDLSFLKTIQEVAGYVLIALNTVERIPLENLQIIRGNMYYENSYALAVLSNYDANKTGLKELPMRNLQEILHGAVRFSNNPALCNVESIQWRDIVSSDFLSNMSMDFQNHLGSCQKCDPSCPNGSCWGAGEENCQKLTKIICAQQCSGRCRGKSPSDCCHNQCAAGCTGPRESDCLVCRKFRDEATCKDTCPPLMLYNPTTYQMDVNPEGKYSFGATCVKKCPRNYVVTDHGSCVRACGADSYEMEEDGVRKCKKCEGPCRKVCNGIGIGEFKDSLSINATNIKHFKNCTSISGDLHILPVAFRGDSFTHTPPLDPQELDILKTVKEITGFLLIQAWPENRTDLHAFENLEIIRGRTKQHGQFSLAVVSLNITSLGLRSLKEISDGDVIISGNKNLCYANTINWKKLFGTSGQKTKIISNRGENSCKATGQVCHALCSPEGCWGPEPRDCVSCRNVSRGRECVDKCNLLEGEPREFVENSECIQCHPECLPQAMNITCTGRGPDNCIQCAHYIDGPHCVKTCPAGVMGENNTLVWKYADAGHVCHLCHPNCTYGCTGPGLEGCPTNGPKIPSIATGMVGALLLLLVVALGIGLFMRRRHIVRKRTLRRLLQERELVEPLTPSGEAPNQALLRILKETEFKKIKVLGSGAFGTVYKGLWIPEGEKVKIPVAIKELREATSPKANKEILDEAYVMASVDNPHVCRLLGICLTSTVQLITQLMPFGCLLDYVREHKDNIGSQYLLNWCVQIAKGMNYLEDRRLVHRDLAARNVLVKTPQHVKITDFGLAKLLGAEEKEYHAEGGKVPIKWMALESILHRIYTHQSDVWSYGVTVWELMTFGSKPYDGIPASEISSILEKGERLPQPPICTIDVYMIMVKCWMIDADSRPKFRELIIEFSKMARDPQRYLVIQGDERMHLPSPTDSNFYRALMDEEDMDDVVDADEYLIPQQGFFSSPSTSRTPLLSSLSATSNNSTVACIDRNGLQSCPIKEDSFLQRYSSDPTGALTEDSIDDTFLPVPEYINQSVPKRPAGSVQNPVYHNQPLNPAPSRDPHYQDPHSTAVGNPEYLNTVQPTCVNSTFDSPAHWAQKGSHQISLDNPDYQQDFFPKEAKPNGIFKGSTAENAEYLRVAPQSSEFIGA

For the molecule `CCN1CCN(Cc2ccc(-c3cc4c(N[C@H](C)c5ccccc5)ncnc4[nH]3)cc2)CC1` [AEE788], the “phosphorylation of EGFR in tumors” value in series [1] is “significantly reduced”; in series [1] (setting [7]) it was “decreases phosphorylation”. Moreover, the “phosphorylation of VEGFR on tumor-associated endothelial cells” value in series [2] is “diminished”. The “Tumor cells TUNEL (number of apoptotic tumor cells)” value in series [3] is 14 ± 4^f. Further, in series [4], the “Body weight(g) Median” value came out at 26.2 g. Besides, the “phosphorylation of VEGFR in tumors” value in series [5] is “significantly reduced”; in series [5] (setting [7]), “decreases phosphorylation”. The “phosphorylation of EGFR on tumor-associated endothelial cells” value in series [6] was “diminished”.
As to `Nc1ccn([C@@H]2O[C@H](CO)[C@@H](O)C2(F)F)c(=O)n1` [Gemcitabine], the “Tumor cells TUNEL (number of apoptotic tumor cells)” value in series [3] is listed as 8 ± 3^f. In series [4], the “Body weight(g) Median” value was 25.7 g.

Values taken from patent US20080219977A1, “Combinations Comprising Gemcitabine and Tyrosine Kinase Inhibitors for the Treatment of Pancreatic Cancer” (priority 2005, published 2008).
